Experimental data published in patent US5089623A, “Certain imidate insecticides” (Imperial Chemical Industries Plc, priority 1990, dated 1992).

What was measured:
Format in all cases: in vivo
[1] = system: Housefly [Musca domestica]; assay: Housefly insecticidal test (HF); details: per 25 female houseflies, 48 hours
[2] = system: Tobacco Budworm [Heliothis virescens (Fabricius)] eggs; assay: Tobacco budworm egg test (TBW-E); details: percent in solution
[3] = system: Cabbage Looper [Trichoplusia ni (Hubner)]; assay: Cabbage looper test (CL); details: second-instar larvae, 3-5 days, percent in solution
[4] = system: Maize weevil [Sitophilus Zeamais (Motschulsky)]; assay: Maize weevil test (MW); details: adult weevils, treated corn seeds, 48 hours, percent in solution
Protocol: The compounds in Tables 1 and 2 above were tested for insecticidal activity using the following testing procedures. LC50 values, based on the results of these tests and calculated according to dosage-mortality curves, are expressed in Table 3.
Maize weevil [Sitophilus Zeamais (Motschulsky)]
Test compounds were diluted in a 50:50 acetone:water solution. Four corn seeds [Zea mays (L.)] which had been immersed in test solutions for 2-3 seconds and allowed to dry were placed in containers together with 10 adult weevils. The containers were covered and kept at a temperature of about 25° C. Mortality was recorded after 48 hours. Test concentrations ranged from 0.01% down to that at which 50% mortalilty occurred. The LC50 values are expressed below in Table 3 under the heading "MW" in terms of percent of the test compound in solution.

Row | Compound | LC50 HF [1] | LC50 TBW E [2] | LC50 CL [3] | LC50 MW [4]
1 | CC(C)C(=Nc1cccc(F)c1)OCc1ccc(F)c(Oc2ccc(F)cc2)c1 [Compound 342] | 4.1 µg | 0.04% | 0.0008% | > 0.01%
2 | COc1ccc(N=C(OCc2ccc(F)c(Oc3ccccc3)c2)C(C)C)cc1Cl [Compound 409] | < 100 µg | 0.025% | 0.0017% | > 0.01%
3 | CC(C)C(=Nc1ccc(F)c(Br)c1)OCc1cccc(Oc2ccc(Cl)cc2)c1 [Compound 398] | < 100 µg | < 0.1% | < 0.1% | > 0.01%
4 | CC(C)C(=Nc1ccc(OCC(F)(F)F)cc1)OCc1cccc(Oc2ccccc2)c1 [Compound 423] | > 100 µg | > 0.1% | 0.002% | > 0.01%
5 | CC(C)C(=Nc1ccc(F)c(Cl)c1)OCc1cccc(Oc2c(F)c(F)c(F)c(F)c2F)c1 [Compound 460] | > 100 µg | > 0.1% | 0.02% | > 0.01%
6 | CC(C)C(=Nc1cccc(C(F)(F)F)c1)OCc1coc(Cc2ccccc2)c1 [Compound 482] | 36 µg | > 0.1% | 0.01% | > 0.01%
7 | CC(C)(C)C(=Nc1cccc(C(F)(F)F)c1)OCc1cccc(Oc2ccccc2)c1 [Compound 88] | > 100 µg | > 0.1% | 0.018% | > 0.01%
8 | CCOc1ccc(N=C(OCc2ccc(F)c(Oc3ccccc3)c2)C(C)C)cc1 [Compound 373] | < 100 µg | > 0.1% | > 0.1% | > 0.01%
9 | Fc1ccc(Oc2cccc(COC(=Nc3cccc(C(F)(F)F)c3)C3CC3)c2)cc1 [Compound 294] | > 100 µg | > 0.1% | 0.017% | > 0.01%
10 | CC(C)C(=Nc1cccc(C(F)(F)F)c1)OCc1ccnc(Oc2ccc(F)cc2)c1 [Compound 508] | > 100 µg | > 0.1% | 0.013% | > 0.01%
11 | Fc1ccc(COC(=Nc2ccc(C(F)(F)F)cc2)C2CC2)cc1Oc1ccccc1 [Compound 443] | < 100 µg | 0.017% | 0.00015% | < 0.01%
12 | CCc1ccc(N=C(OCc2cccc(Oc3ccc(Cl)cc3)n2)C(C)C)cc1 [Compound 552] | > 100 µg | > 0.1% | 0.0016% | > 0.01%
13 | Cc1cc(N=C(OCc2ccc(F)c(Oc3ccc(Cl)cc3)c2)C(C)C)ccc1F [Compound 399] | < 100 µg | 0.025% | 0.0012% | > 0.01%
14 | CC(C)C(=Nc1ccc(F)c(Cl)c1F)OCc1ccc(F)c(Oc2ccc(Cl)cc2)c1 [Compound 395] | 8.6 µg | 0.018% | < 0.1% | 0.004%
15 | C=C(C)C(=Nc1ccc(F)c(Cl)c1)OCc1ccc(F)c(Oc2ccc(Cl)cc2)c1 [Compound 415] | < 100 µg | 0.035% | 0.00075% | > 0.01%
16 | Clc1ccc(N=C(OCc2cccc(Oc3ccccc3)c2)C2CCC2)cc1 [Compound 8] | 50 µg | > 0.01% | 0.01% | > 0.01%
17 | CCOc1ccc(N=C(OCc2ccc(F)c(Oc3ccccc3)c2)C(C)C)cc1F [Compound 439] | > 100 µg | > 0.1% | 0.00045% | > 0.01%
18 | CC(C)C(=Nc1ccc(OCC(F)(F)F)c(F)c1)OCc1cccc(Oc2ccc(Cl)cc2)c1 [Compound 429] | > 100 µg | < 0.1% | 0.0017% | > 0.01%
19 | CC(C)C(=Nc1ccc(Br)c(F)c1)OCc1cccc(Oc2ccc(Cl)cc2)n1 [Compound 551] | < 100 µg | 0.035% | 0.00075% | > 0.01%
20 | Cc1ccc(N=C(OCc2cccc(Oc3ccc(F)cc3)c2)C(C)C)cc1Cl [Compound 402] | < 100 µg | > 0.1% | > 0.1% | > 0.01%
21 | CC(C)C(=Nc1ccc(I)c(Cl)c1)OCc1cccc(Oc2ccc(F)cc2)c1 [Compound 374] | < 100 µg | 0.02% | 0.00058% | > 0.01%
22 | CCOc1cccc(N=C(OCc2ccc(F)c(Oc3ccc(F)cc3)c2)C(C)C)c1 [Compound 426] | > 100 µg | > 0.1% | 0.002% | > 0.01%

Row | Compound | LC50 HF [1] | LC50 TBW E [2] | LC50 CL [3] | LC50 MW [4]
23 | CC(C)C(=Nc1ccc(Br)c(Br)c1)OCc1ccc(F)c(Oc2ccccc2)c1 [Compound 384] | < 100 µg | 0.025% | > 0.1% | > 0.01%
24 | CC(C)C(=Nc1ccc(F)cc1F)OCc1coc(Cc2ccccc2)c1 [Compound 486] | 15 µg | > 0.1% | > 0.1% | > 0.01%
25 | COCc1c(F)c(F)c(COC(=Nc2cccc(C(F)(F)F)c2)C(C)C)c(F)c1F [Compound 503] | 21 µg | 0.08% | 0.001% | > 0.01%
26 | CC(C)C(=Nc1ccc(F)c(I)c1)OCc1cccc(Oc2ccc(Cl)cc2)c1 [Compound 413] | < 100 µg | 0.04% | 0.0007% | > 0.01%
27 | CC(C)(F)C(=Nc1ccc(F)c(Cl)c1)OCc1cccc(Oc2ccc(F)cc2)c1 [Compound 309] | > 100 µg | 0.07% | 0.00017% | 
28 | CC(C)C(=Nc1cc(Cl)c(Cl)cc1Cl)OCc1cccc(Oc2ccccc2)c1 [Compound 18] | > 100 µg | 0.09% | 0.008% | 
29 | CC(C)C(=Nc1ccc(Cl)c(Cl)c1)OCc1cccc(Oc2cccc(Cl)c2)c1 [Compound 207] | > 100 µg | > 0.1% | 0.008% | 
30 | CC(C)C(=Nc1ccc(C#N)cc1)OCc1cccc(Oc2ccc(F)cc2)c1 [Compound 227] | 10 µg | 0.1% | 0.0015% | 
31 | CCC(C)C(=Nc1ccc(Cl)c(Cl)c1)OCc1cccc(Oc2ccc(F)cc2)c1 (centres unmarked) [Compound 211] | 61 µg | > 0.1% | 0.0017% | 
32 | CCC(=Nc1ccc(C(C)C)cc1)OCc1cccc(Oc2ccc(F)cc2)c1 [Compound 320] | > 100 µg | > 0.1% | 0.0075% | 
33 | CC(C)(Cl)C(=Nc1ccc(Cl)c2ccccc12)OCc1cccc(Oc2ccccc2)c1 [Compound 111] | > 100 µg | > 0.1% | 0.1% | 
34 | CC(C)C(=Nc1ccc(F)cc1)OCc1cccc(Oc2ccc(F)c(F)c2)c1 [Compound 265] | 10 µg | 0.07% | 0.00025% | 
35 | Cc1cccc(N=C(OCc2cccc(Oc3ccccc3)c2)C(C)C)c1C [Compound 148] | 18 µg | 0.025% | 0.0025% | 
36 | CC(C)C(=Nc1cc(F)ccc1F)OCc1cccc(Oc2ccccc2)c1 [Compound 56] | 91 µg | > 0.05% | 0.01% | 
37 | CC(Cl)C(=Nc1ccc(Cl)c(Cl)c1)OCc1cccc(Oc2ccccc2)c1 (centres unmarked) [Compound 27] | > 100 µg | > 0.1% | 0.04% | 
38 | Cc1ccc(Cl)cc1N=C(OCc1cccc(Oc2ccccc2)c1)C(C)C [Compound 263] | > 100 µg | > 0.1% | 0.05% | 
39 | CC(C)C(=Nc1ccc(F)c(Cl)c1)OCc1cc(F)cc(Oc2ccc(F)cc2)c1 [Compound 327] | > 100 µg | > 0.1% | 0.005% | 
40 | Cc1ccc(N=C(OCc2cccc(Oc3ccccc3)c2)C(C)(C)C)cc1Cl [Compound 107] | > 100 µg | > 0.1% | 0.007% | 
41 | CC(Br)C(=Nc1ccc(F)c(Cl)c1)OCc1cccc(Oc2ccc(F)cc2)c1 (centres unmarked) [Compound 305] | > 100 µg | > 0.1% | 0.048% | 
42 | CCSc1ccc(N=C(OCc2cccc(Oc3ccccc3)c2)C(C)C)cc1Cl [Compound 103] | > 100 µg | > 0.1% | 0.015% | 
43 | Cc1ccc(N=C(OCc2cccc(Oc3ccccc3)c2)C(C)C)c(Cl)c1 [Compound 94] | 44 µg | 0.075% | 0.0045% | 
44 | CC(C)C(=Nc1ccc(C(C)(C)C)c(Cl)c1)OCc1cccc(Oc2ccc(F)cc2)c1 [Compound 308] | > 100 µg | > 0.1% | 0.009% | 
